Source: PubChem BioAssay (NCI)
Where “and” joins values, the source holds several entries; their conditions need not be identical. Identical values can stand only once.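 Protocol summary: plate cells (96-well), add compound at 5 concentrations, incubate 48 h, interpolate endpoints linearly. GI50 is the concentration that inhibits growth by half. TGI: concentration producing complete growth inhibition.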

Legend:
Assay in all cases: NCI tumour cell line growth inhibition, 48 h
SF-268 CNS = tested on: SF-268 CNS
HCT-15 colon = tested on: HCT-15 colon
OVCAR-4 ovarian = tested on: OVCAR-4 ovarian
SW-620 colon = tested on: SW-620 colon
MDA-MB-231 breast = tested on: MDA-MB-231 breast
OVCAR-3 ovarian = tested on: OVCAR-3 ovarian
OVCAR-8 ovarian = tested on: OVCAR-8 ovarian
A498 renal = tested on: A498 renal
SN12C renal = tested on: SN12C renal
BT-549 breast = tested on: BT-549 breast

SMILES | GI50 (SF-268 CNS) | TGI (SF-268 CNS) | GI50 (HCT-15 colon) | TGI (HCT-15 colon) | GI50 (OVCAR-4 ovarian) | TGI (OVCAR-4 ovarian) | GI50 (SW-620 colon) | TGI (SW-620 colon) | GI50 (MDA-MB-231 breast) | TGI (MDA-MB-231 breast) | GI50 (OVCAR-3 ovarian) | TGI (OVCAR-3 ovarian) | GI50 (OVCAR-8 ovarian) | TGI (OVCAR-8 ovarian) | GI50 (A498 renal) | TGI (A498 renal) | GI50 (SN12C renal) | TGI (SN12C renal) | GI50 (BT-549 breast) | TGI (BT-549 breast)
Nc1ccc(C#Cc2cncnc2Nc2ccc(OCc3cccc(F)c3)c(Cl)c2)cc1 | 16.5 µM | > 25 µM | 7.32 µM | > 25 µM | 12.3 µM | > 25 µM | > 25 µM | > 25 µM | 8.08 µM | > 25 µM | 8.87 µM | > 25 µM | 11.9 µM | > 25 µM | 1.7 µM | > 15.4 µM | > 15.6 µM | > 25 µM | > 21 µM | > 25 µM
COC(=O)c1ccccc1NC(=O)C(=O)CC(=O)c1ccccc1NC1=CC(=O)C(=O)c2ccccc21 | – | 30.3 µM | – | 34.1 µM | – | 36.2 µM | – | 23 µM | – | 23 µM | – | 12.3 µM | – | 60.9 µM | – | > 56.2 µM | – | 15.1 µM | – | 39.4 µM
C(CCc1nnc2c(n1)CCCC2)Cc1nnc2c(n1)CCCC2 | – | > 100 µM | – | > 100 µM | – | > 100 µM | – | > 100 µM | – | > 100 µM | – | > 100 µM | – | > 100 µM | – | > 100 µM | – | > 100 µM | – | > 100 µM
COC(=O)c1ccc(=O)c2nc3/c(=C/O)c(O)cc(=O)c3[nH]c12 | 1.2 µM | 24.9 µM and 18.6 µM | 0.42 µM | 21.4 µM and 14.5 µM | 3.58 µM | 31.4 µM and 29.8 µM | 1.21 µM | > 60.4 µM and 18.9 µM | 3.57 µM | 19.3 µM and 19.2 µM | 1.04 µM | 25.7 µM and 15 µM | 0.364 µM | 2.95 µM and 24.9 µM | – | 30.8 µM and 17.4 µM | 0.44 µM | 20 µM and 12.8 µM | 0.347 µM | 6.14 µM and 12.1 µM
O=c1cccc(C#Cc2ccccc2)o1 | 5.34 µM | > 96.7 µM | 6.9 µM | 23.6 µM | 18.4 µM | 44.5 µM | 4.85 µM | 43.3 µM | 6.05 µM | 25.8 µM | 2.42 µM | 11.1 µM | > 22.8 µM | > 100 µM | 2.38 µM | 7.02 µM | 14.5 µM | > 53.2 µM | 2.57 µM | 12.2 µM
Nc1nc2ccc([C@@H]3Nc4ccc5[nH]ncc5c4[C@H]4[C@H]5CCC(C5)[C@H]43)cc2s1 | 1.49 µM | 4.52 µM | 0.505 µM | 2.64 µM | 2.2 µM | 6.05 µM | 0.474 µM | 1.87 µM | 1.29 µM | 11.6 µM | 0.366 µM | 1.25 µM | 2.35 µM | 16.7 µM | 0.288 µM | 1.78 µM | 1.53 µM | 4.12 µM | 1.25 µM | 5.25 µM
COc1ccc(-c2cnc(-c3ccc(F)cc3)[nH]2)cc1 | 2.62 µM | 8 µM | 5.98 µM | 13.9 µM | 10.1 µM | > 35.3 µM | 1.91 µM | 3.99 µM | 24 µM | > 77.7 µM | 1.64 µM | 3.65 µM | 7.85 µM | 21.1 µM | 2.2 µM | 6.17 µM | 8.34 µM | 23.7 µM | 1.79 µM | 4.12 µM
COC(=O)c1c2c(c(C)[n+]([O-])c1C)C(=O)C=C(NCc1cccc(OC)c1)C2=O | 1.26 µM | 4.21 µM | 0.331 µM | 1.61 µM | 0.246 µM | 0.993 µM | 0.318 µM | 1.26 µM | 0.358 µM | 4.83 µM | 0.257 µM | 0.743 µM | 0.29 µM | 1.4 µM | 1.31 µM | 2.59 µM | 0.323 µM | 1.24 µM | 1.29 µM | 2.65 µM
Cc1cc(O)c2c(c1)C(=O)c1cc(O)cc(O)c1C2=O | – | 97.5 µM | – | > 80.2 µM | – | 98.8 µM | – | > 100 µM | 16.1 µM | 57.5 µM | 14.7 µM | 42.2 µM | 34.3 µM | > 100 µM | – | 56.5 µM | – | > 78.9 µM | 25.4 µM | 86 µM
Cc1cc(=O)oc2cc(OC(=O)Nc3ccc(Cl)c(Cl)c3)ccc12 | – | > 100 µM | – | > 100 µM | – | > 100 µM | – | 48.1 µM | – | 58 µM | – | 50.2 µM | – | 54.8 µM | – | 32.6 µM | – | 70.9 µM | – | 61.5 µM
COC(=O)[C@]12CC[C@@H](C)[C@H](C)[C@@H]1C1=CC[C@@H]3[C@@]4(C)C(C=O)=C[C@@](C)(COC(C)=O)[C@@H]4[C@H](O)C[C@@]3(C)[C@]1(C)CC2 | 2.65 µM | 9.14 µM | 1.54 µM | 3.06 µM | 2.64 µM | 10.7 µM | 2.66 µM | 8.21 µM | 2.27 µM | 5.41 µM | 1.82 µM | 3.34 µM | 3.03 µM | 10.4 µM | 2.6 µM | 10.2 µM | 2.3 µM | 6.08 µM | 2.03 µM | 5.11 µM
CN1CCN(c2ccc(-c3cnc4c(-c5csc6ccccc56)cnn4c3)cc2)CC1 | > 15 µM | > 15 µM | 3.65 µM | > 15 µM | 11.2 µM | > 15 µM | 3.73 µM | 10.1 µM | 4.88 µM | 14.7 µM | 3.02 µM | 6.59 µM | 5.7 µM | > 15 µM | 4.2 µM | > 15 µM | 14.8 µM | > 15 µM | 7.29 µM | > 15 µM
C=C(CNCCc1ccc(O)cc1)[C@@H]1CC[C@]2(CO)CC[C@]3(C)[C@H](CC[C@@H]4[C@@]5(C)CCC(=O)C(C)(C)[C@@H]5CC[C@]43C)[C@@H]12 | – | – | 1.47 µM | 2.89 µM | 1.65 µM | 3.12 µM | 1.77 µM | 3.76 µM | 1.76 µM | 3.2 µM | 1.67 µM | 3.08 µM | 1.73 µM | 3.16 µM | 1.38 µM | 2.77 µM | 1.65 µM | 3.12 µM | 1.71 µM | 3.29 µM
CO[C@H]1[C@H](O)[C@H](O[C@H]2CC[C@@]3(C)[C@H](CC[C@@H]4[C@@H]3CC[C@]3(C)[C@@H](C5=CC(=O)OC5)CC[C@]43O)C2)O[C@@H](C)[C@@H]1O | – | 0.00183 µM and 0.0166 µM | – | 0.00255 µM and < 0.0124 µM | – | 0.000626 µM | – | 0.00341 µM | – | 0.00907 µM | – | 0.00116 µM | – | 0.00572 µM and 0.0113 µM | – | 0.0252 µM | – | 0.00112 µM and < 0.0107 µM | – | 0.000665 µM
